The values below come from patent publication US8541653B2, “Transformation of soybean” (BASF Plant Science GmbH, priority 2004, dated 2013).

“And” between values parts separate entries of the source, which are not always exact repeats. Equal entries are not always repeated.

Type in all cases: cell-based, soybean
Series [1] concerns explants from the cultivar L00106CN. The series can be described thus: GUS (+) foci on explants infected with AGL1 carrying three binary vectors, with L-cysteine. The settings on record: 400 mg/L (3.3 mM) L-cysteine, AGL1, 10 days post-infection. The text has this: Seed germination, propagation, A. tumefaciens and axillary meristem explant preparation, and inoculations were done as previously described. In the first experiment, three A. tumefaciens strains, MP90, LBA4404 and AGL1, containing the binary vector pBPSMM192b (SEQ ID NO: 2) were compared. The infected propagated axillary meristems with the 3 A. tumefaciens strains were removed from the co-cultivation media after 3 days and GUS stained 10 days after inoculation.
In a separate experiment, GUS expression was evaluated on explants from the cultivar L00106CN 10-days after infection with the Agrobacterium strain AGL1 containing the binary vectors pBPSLM003 [LB-OCSt-bar-pMAS::pSuper-gusINT-NOSt-RB] (SEQ ID NO: 3), pBPSMM192a [LB-NOSt-gusINT-pSuper::AtAhast-AtAhas-pAtAhas-RB], or pBPSMM192b [LB-pSuper-gusINT-NOSt::AtAhast-AtAhas-pAtAhas-RB] (SEQ ID NO: 2). The backbone sequence of pBPSLM003 (SEQ ID NO: 3) is different of that in pBPSMM192a and b (SEQ ID NO: 2). The vector pBPSMM192a [LB-NOSt-gusINT-pSuper::AtAhast-AtAhas-pAtAhas-RB is distinguished from the vector pBPSMM192b (SEQ ID NO: 2) by the orientation of the pSuper-gusINT-NOSt expression cassette, which is in reverse orientation.
Explants were also evaluated for GUS expression on explants that had been co-cultivated with or without 400 mg/L (3.3 mM) L-cysteine in the solid co-cultivation medium. Twenty explants of each treatment were prepared for each repetition, a total of 2 repetitions in this experiment. GUS expression was scored 10-days-post initial infection.

Series [2] concerns leaf explants. The experiment in a line: Transient GUS expression on leaf explants after co-cultivation on CCM with thiol compounds (Example 8, experiment 2). As to conditions: for Entire: explant with GUS (+) foci: entire explant immersed; for Dip: explant with GUS (+) foci: petiole end dipped. The procedure: In both experiments, soybean cultivar (e.g., Jack) and the Agrobacterium tumefaciens strain AGL1 containing the binary plasmid pBPSEW008 (SEQ ID NO: 1) was used. The binary plasmid contains nosP-bar-nosT and pUBI-gusINT-nosT. The leaf explants and Agrobacterium were prepared as described earlier. The final Agrobacterium OD600 used for all experiments was 0.5. In the first experiment, two repetitions were made for which the following conditions were tested, • (1) addition of one of five thiol combinations added to CCM (no thiols, 100 mg/L L-cysteine (0.825 mM), 400 mg/L L-cysteine (3.3 mM), 1000 mg/L L-cysteine (8.25 mM), or 1 mM sodium thiolsulfate+1 mM DTT+ 1000 mg/L L-cysteine (8.25 mM)), • (2) 3, 4, or 5 day co-cultivation at 25° C., and • (3) incubation in the dark or under 100 μE/m2s cool white light under a 16 light/8 dark light regime. In the second experiment, explants were prepared and subjected to the above treatments except all leaf explants were co-cultivated for 5 days and either the entire ex-plant was immersed into the Agrobacterium/CCM suspension for 10 minutes or the cut petiole end of the explant dipped. Ten explants were entirely immersed per treatment and 4 explants were dipped per treatment. All explants were GUS-stained immediately after co-cultivation.

Series [3] has as its system propagated axillary meristems (cultivar Jack). The experiment in a line: GUS expression on propagated axillary meristem explants co-cultivated with L-cysteine. As to conditions: for frequency of propagated axillary meristems showing GUS(+) foci, Day3: AGL1. The procedure: Explant preparation: Seeds of variety Jack were surface sterilized by exposure to 70% ethanol for 6 min then immersed in a solution that contained 25% commercial bleach (NaOCl) and 0.1% Tween 20 and stirred at 200 rpm for 20 min. Seeds were rinsed 4 times in sterile water. Germination was carried out for 7 day in the dark at 25° C. The root and half of both cotyledons were removed from the seven-day-old seedlings and imbedded into propagation media on 150×20 mm Petri plates. Plates were sealed with Parafilm™ and placed in a culture room at 25° C. in the light for 2 to 5 weeks.
A. tumefaciens preparation and explant inoculation: A. tumefaciens strain AGL1 carrying the binary vector pBPSMM192b [LB-pSuper-gusINT-NOSt::AtAhast-AtAhas-pAtAhas-RB] (SEQ ID NO: 2) was used. A single colony was used to inoculate 25 to 30 ml LB media containing the appropriate antibiotics. Flasks were shaken on an orbit shaker (220 rpm) at 28° C. for 24 to 36 hours the OD600 reached 0.8 to 1.0. The Agrobacterium was pelleted by centrifugation at 3500 rpm for 8 to 10 min. The bacterial cells were re-suspended in liquid co-cultivation media containing 200 μM acetosyringone. Once cut, the propagated axillary meristem explants were immediately immersed in the A. tumefaciens suspension and remained for 30 minutes. Infected tissues were then transferred either to a vacuum chamber (25-30 mm Hg) for 5 min or placed directly on co-cultivation media. Before transferring onto cultivation medium, explants were blotted dry on sterile filter paper. The treatment tested was the addition of 0, 400, or 800 mg/L L-cysteine into the solid co-cultivation media (0, 3.3, or 6.6 mM, respectively). Co-cultivation was carried out in the dark for 3 days at 25° C. Vacuum infiltration results in an increase of transformation efficiency in protocols which were performed without cysteine-supplementation, but has no significant effect on protocols which were performed with cysteine-supplementation. GUS histochemical assay: Propagated axillary meristem explants infected with A. tumefaciens strain AGL1 were removed from the co-cultivation media after 3 days and stained with Gus overnight at 37° C. Remaining explants were transfer to shoot induction media containing 500 mg/L Timentin™. Gus histochemical assays were also performed at 10 and 45 days after inoculation. Results: After 3 days co-cultivation, the frequency of explants with GUS^+ foci increased from 2.5% to 45 and 63% by the addition of 800 (6.6 mM) or 400 mg/L (3.3 mM) L-cysteine, respectively, into the solid co-cultivation medium. […] The increases in GUS staining were also seen 10 and 45 days after co-cultivation (Table 10).

In series [4] the test system is leaf explants. The experiment in a line: Callus/shoot pad regeneration of leaf explants after co-cultivation on CCM with thiol compounds (Example 8, experiment 1). As to conditions: L-cysteine levels over 400 mg/L (3.3 mM) in CCM. The procedure: In both experiments, soybean cultivar (e.g., Jack) and the Agrobacterium tumefaciens strain AGL1 containing the binary plasmid pBPSEW008 (SEQ ID NO: 1) was used. The binary plasmid contains nosP-bar-nosT and pUBI-gusINT-nosT. The leaf explants and Agrobacterium were prepared as described earlier. The final Agrobacterium OD600 used for all experiments was 0.5. In the first experiment, two repetitions were made for which the following conditions were tested, • (1) addition of one of five thiol combinations added to CCM (no thiols, 100 mg/L L-cysteine (0.825 mM), 400 mg/L L-cysteine (3.3 mM), 1000 mg/L L-cysteine (8.25 mM), or 1 mM sodium thiolsulfate+1 mM DTT+ 1000 mg/L L-cysteine (8.25 mM)), • (2) 3, 4, or 5 day co-cultivation at 25° C., and • (3) incubation in the dark or under 100 μE/m2s cool white light under a 16 light/8 dark light regime. Ten explants were prepared for each treatment. The explants were grown on SIM medium for 2 weeks after which time the percent of explants developing a callus/shoot pad were recorded.

Series [5] deals with axillary meristem explants. The experiment in a line: Regeneration capacity of axillary meristem explants on shoot initiation medium with BAP or TDZ. The settings on record: three weeks on shoot induction medium. Here is the method:
Cultivar Jack was used in both growing conditions tested. For in vitro donor material, sterile seeds were sown in a Plantcon™ (SIGMA) containing ½ MS salts and 2% sucrose pH 5.7. Seedlings were maintained at 25° C. 16/8 hours (light/dark) photoperiod, at a light intensity between 40 to 70 μM m^−2 s^−1. For greenhouse donor plants, seeds were sown on Metromix™ and grown in the greenhouse at 25° C. and 16 hour photoperiod. Greenhouse tissues were excised from the plant after 3 weeks. For greenhouse materials, the tissues were surface sterilized by immersion on a solution containing 5% Tween 20, followed by immersion in 70% (v/v) ethanol for 2 min then washed for 10 min in 3.5% (v/v) sodium hypochlorite solution and finally rinsed 3 times in sterile water. For in vitro donor material, no further sterilization was needed. Axillary meristem explants were placed basipetal into shoot initiation medium containing full strength MS salts and B5 Gamborg's vitamins amended with either 5 μM BAP or 2 mg/L (9.1 μM) TDZ. […]

Where [6] appears, read: 100 mg/l Cys in CCM, Light, 5 days co-cultivation.

As to `N[C@@H](CS)C(=O)O` [L-cysteine], the “frequency of GUS (+) foci on explants, pBPSLM003” value in series [1] is on record as 85%. Moreover, the “frequency of GUS (+) foci on explants, pBPSMM192a” value in series [1] is on record as 77%. Besides, the “frequency of GUS (+) foci on explants, pBPSMM192b” value in series [1] is on record as 95%. Further, the “Entire: explant with GUS (+) foci” value was 6/10 in the series on leaf explants [2] (setting [6]); 7/10 in the series on leaf explants [2] (100 mg/l Cys, Dark); 9/10 with leaf explants [2] (400 mg/l Cys, Dark); 9/10 in the series on leaf explants [2] (400 mg/l Cys, Light); 3/10 with leaf explants [2] (1000 mg/l Cys, Dark); 3/10 in the series with leaf explants [2] (1000 mg/l Cys, Light). Besides, the “Dip: explant with GUS (+) foci” value in the series on leaf explants [2] (setting [6]) was 0/4; in the series on leaf explants [2] (100 mg/l Cys, Dark) it was 0/4; in the series with leaf explants [2] (400 mg/l Cys, Dark), 3/4; with leaf explants [2] (400 mg/l Cys, Light), 1/4; in the series on leaf explants [2] (1000 mg/l Cys, Dark) it was 0/4; in the series on leaf explants [2] (1000 mg/l Cys, Light), 1/4. Moreover, the “effect on explant tissue” value in the series with leaf explants [2] (1000 mg/L L-cysteine in CCM) is reported as “significant bleaching”; in the series on leaf explants [4] it was “tissue death”. Further, the “frequency of propagated axillary meristems showing GUS(+) foci, Day 10” value in series [3] (400 mg/L L-cysteine) is given as 90.0%; in series [3] (800 mg/L L-cysteine) it was 72.5%. Besides, the entries for the “frequency of propagated axillary meristems showing GUS(+) foci, Day 45” value in series [3] (400 mg/L L-cysteine) and in series [3] (800 mg/L L-cysteine) were 22.5% and 7.5%, respectively. In addition, the “frequency of propagated axillary meristems showing GUS(+) foci, Day3” value was 63% and 65.0% in series [3] (400 mg/L L-cysteine in solid co-cultivation medium); 45% and 47.5% in series [3] (800 mg/L L-cysteine in solid co-cultivation medium). Also, the “browning and tissue necrosis of explants” value in series [3] (compared with explants not exposed to L-cysteine) was “less browning and tissue necrosis”.
As to `O=C(Nc1ccccc1)Nc1cnns1` [TDZ], the “Mean # of shoots per explant” value in series [5] (Greenhouse plant, TDZ 9.1 μM) was determined as 0.32; in series [5] (In vitro plant, TDZ 9.1 μM), 0.74.
With `c1ccc(CNc2ncnc3nc[nH]c23)cc1` [BAP, 6-benzylaminopurine], the “Mean # of shoots per explant” value is 0.20 in series [5] (Greenhouse plant, BAP 5 uM) and 1.97 in series [5] (In vitro plant, BAP 5 uM).
